≈ marks a conversion by molar mass, not a printed value. *1 amine or outer side, *2 acyl side, *3 side chain or, on linkers, in order; H or OH if unused. Where a SMILES comes first, the peptide text is derived from it. Bridges are numbered along the chain shown (N, C = ends). [ ]: non-standard residue; d: D form. The star is where a group is joined. X1 = O=C(NC(=O)[C@H](Cc1cnc[nH]1)N[*:1])[C@@H](Cc1cnc[nH]1)C(=O)[*:2]; C20 diacid = O=C(O)CCCCCCCCCCCCCCCCCCC(=O)*; γGlu = O=C(O)[C@H](CCC(=O)[*:2])N[*:1]; Agb = N=C(N)NCC[C@H](N)C(=O)O
Experiments:
[1] = Agonist activity at human AMY3R (CT+RAMP3) expressed in Hollex1 cells incubated for 3 hrs by luminescence assay; assay type: cell-based; conditions: Hollex1, 3 h
[2] = Agonist activity at human calcitonin receptor expressed in BHK570 cells assessed as increase in intracellular cAMP concentration incubated for 3 hrs in absence of albumin by CRE luciferase reporter gene assay; assay type: cell-based; conditions: BHK570, 3 h
Homo sapiens = species: Homo sapiens; test: Ratio of EC50 for human calcitonin receptor expressed in BHK570 cells to EC50 for human AMY3R (CT+RAMP3) expressed in Hollex1 cells; assay type: cell-based
[3] = Agonist activity at rat AMY3R (CT+RAMP3) expressed in tk-ts13 cells assessed as increase in intracellular cAMP level incuabted for 25 mins by CRE luciferase reporter gene assay; assay type: cell-based; conditions: tk-ts13, 25 min
[4] = Agonist activity at rat calcitonin receptor expressed in BHK-13 cells assessed as increase in intracellular cAMP concentration incubated for 25 mins by CRE luciferase reporter gene assay; assay type: cell-based; conditions: BHK-13, 25 min
Rattus norvegicus [5] = species: Rattus norvegicus; test: Ratio of EC50 for rat calcitonin receptor expressed in BHK-13 cells to EC50 for rat AMY3R (CT+RAMP3) expressed in tk-ts13 cells; assay type: cell-based
[6] = Displacement of [125I]-amylin from human AMY3R (CTR+RAMP3) expressed in BHK-13 cells measured after 120 mins by scintillation proximity assay; assay type: cell-based
[7] = Solubility of the compound in lactate at pH 3 by UPLC analysis; assay type: physicochemical; conditions: lactate buffer
[8] = Solubility of the compound in lactate at pH 4 by UPLC analysis; assay type: physicochemical; conditions: lactate buffer
[9] = Solubility of the compound in lactate at pH 5 by UPLC analysis; assay type: physicochemical; conditions: lactate buffer
[10] = Solubility of the compound in bis-tris propane at pH 6 by UPLC analysis; assay type: physicochemical; conditions: bis-tris propane buffer
[11] = Solubility of the compound in bis-tris propane at pH 8 by UPLC analysis; assay type: physicochemical; conditions: bis-tris propane buffer
Insulin (Homo sapiens) [12] = target: Insulin (Homo sapiens) (UniProt P01308); test: Effect on insulin (unknown origin) amyloid fibril formation assessed as lag time in glycyl-glycine buffer at pH 4 measured after 45 hrs by thioflavin-T fluorescence assay
Insulin (Homo sapiens), sequence (P01308 whole entry): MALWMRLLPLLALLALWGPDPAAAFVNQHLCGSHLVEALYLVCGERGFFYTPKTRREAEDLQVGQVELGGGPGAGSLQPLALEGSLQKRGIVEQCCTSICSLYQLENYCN

Insulin (Homo sapiens) [13] = target: Insulin (Homo sapiens) (UniProt P01308); test: Effect on insulin (unknown origin) amyloid fibril formation assessed as peptide recovery in glycyl-glycine buffer at pH 4 measured after 45 hrs by thioflavin-T fluorescence assay relative to control; design: concentration or dose not given beside the values
Rattus norvegicus [14] = test: Reduction in food intake in Sprague-Dawley rat at 30 nmol/kg, sc administered as single dose measured upto 24 hrs relative to control; assay type: functional; design: scale not given: the % may be the effect or the level left; conditions: time hrs <=24
Rattus norvegicus [15] = test: Reduction in food intake in Sprague-Dawley rat at 30 nmol/kg, sc administered as single dose measured after 24 to 48 hrs relative to control; assay type: functional; design: scale not given: the % may be the effect or the level left; conditions: time 24-48 hrs
[16] = Solubility of the compound in bis-tris propane at pH 6.5 by UPLC analysis; assay type: physicochemical; conditions: bis-tris propane buffer
[17] = Solubility of the compound in bis-tris propane at pH 7 by UPLC analysis; assay type: physicochemical; conditions: bis-tris propane buffer
[18] = Solubility of the compound in bis-tris propane at pH 7.5 by UPLC analysis; assay type: physicochemical; conditions: bis-tris propane buffer

| SMILES | EC50 [1] [nM] | EC50 [2] [nM] | Ratio EC50 (Homo sapiens) | EC50 [3] [nM] | EC50 [4] [nM] | Ratio EC50 (Rattus norvegicus [5]) | IC50 [6] [nM] | solubility [7] [µM] | solubility [8] [µM] | solubility [9] [µM] | solubility [10] [µM] | solubility [11] [µM] | TIME (Insulin (Homo sapiens) [12]) [h] | Activity (Insulin (Homo sapiens) [13]) [%] | Activity (Rattus norvegicus [14]) [%] | Activity (Rattus norvegicus [15]) [%] | solubility [16] [µM] | solubility [17] [µM] | solubility [18] [µM] |
| --- | --- | --- | --- | --- | --- | --- | --- | --- | --- | --- | --- | --- | --- | --- | --- | --- | --- | --- | --- |
| CC[C@H](C)[C@H](NC(=O)[C@@H]1CCCN1C(=O)CNC(=O)[C@H](Cc1ccccc1)NC(=O)[C@H](CC(N)=O)NC(=O)[C@H](CC(N)=O)NC(=O)[C@H](CO)NC(=O)[C@H](CO)NC(=O)[C@H](Cc1cnc[nH]1)NC(=O)[C@H](Cc1cnc[nH]1)NC(=O)[C@H](CC(C)C)NC(=O)[C@H](Cc1ccccc1)NC(=O)[C@H](CCC(=O)O)NC(=O)[C@H](C)NC(=O)[C@H](CC(C)C)NC(=O)[C@H](CCCNC(=N)N)NC(=O)[C@H](CCC(N)=O)NC(=O)[C@@H](NC(=O)[C@H](C)NC(=O)[C@@H]1CSSC[C@H](NC(=O)[C@H](Cc2cnc[nH]2)NC(=O)[C@H](Cc2cnc[nH]2)NC(=O)[C@H](Cc2cnc[nH]2)NC(=O)CC[C@H](NC(=O)CCCCCCCCCCCCCCCCCCC(=O)O)C(=O)O)C(=O)N[C@@H](CC(N)=O)C(=O)N[C@@H]([C@@H](C)O)C(=O)N[C@@H](C)C(=O)N[C@@H]([C@@H](C)O)C(=O)N1)[C@@H](C)O)C(=O)N[C@@H](CC(C)C)C(=O)N1CCC[C@H]1C(=O)N1CCC[C@H]1C(=O)N[C@H](C(=O)N[C@@H](CC(N)=O)C(=O)N[C@H](C(=O)NCC(=O)N[C@@H](CO)C(=O)N[C@@H](CC(N)=O)C(=O)N[C@H](C(=O)N[C@@H](Cc1ccc(O)cc1)C(N)=O)[C@@H](C)O)C(C)C)[C@@H](C)O ({C20 diacid-γGlu}-HHHCNTATCATQRLAEFLHHSSNNFGPILPPTNVGSNTY-NH2; disulfide 4-9) | 0.074 | 0.2 | 3 | 0.083 | 0.857 | 10 | 0.723 | 200 (≈ 948 µg/mL) | 200 (≈ 948 µg/mL) | 200 (≈ 948 µg/mL) | 200 (≈ 948 µg/mL) | 200 (≈ 948 µg/mL) | 7 | 3 | 87 | 92 | – | – | – |
| CC[C@H](C)[C@H](NC(=O)[C@@H]1CCCN1C(=O)CNC(=O)[C@H](Cc1ccccc1)NC(=O)[C@H](CC(N)=O)NC(=O)[C@H](CC(N)=O)NC(=O)[C@H](CO)NC(=O)[C@H](CO)NC(=O)[C@H](Cc1cnc[nH]1)NC(=O)[C@H](Cc1cnc[nH]1)NC(=O)[C@H](CC(C)C)NC(=O)[C@H](Cc1ccccc1)NC(=O)[C@H](CC(N)=O)NC(=O)[C@H](C)NC(=O)[C@H](CC(C)C)NC(=O)[C@H](CCNC(=N)N)NC(=O)[C@H](CCC(N)=O)NC(=O)[C@@H](NC(=O)[C@H](C)NC(=O)[C@@H]1CSSC[C@H](NC(=O)[C@H](Cc2cnc[nH]2)NC(=O)[C@H](Cc2cnc[nH]2)C(=O)NC(=O)[C@H](Cc2cnc[nH]2)NC(=O)CC[C@H](NC(=O)CCCCCCCCCCCCCCCCCCC(=O)O)C(=O)O)C(=O)N[C@@H](CC(N)=O)C(=O)N[C@@H]([C@@H](C)O)C(=O)N[C@@H](C)C(=O)N[C@@H]([C@@H](C)O)C(=O)N1)[C@@H](C)O)C(=O)N[C@@H](CC(C)C)C(=O)N1CCC[C@H]1C(=O)N1CCC[C@H]1C(=O)N[C@H](C(=O)N[C@@H](CC(N)=O)C(=O)N[C@H](C(=O)NCC(=O)N[C@@H](CO)C(=O)N[C@@H](CC(N)=O)C(=O)N[C@H](C(=O)N[C@@H](Cc1ccc(O)cc1)C(N)=O)[C@@H](C)O)C(C)C)[C@@H](C)O ({C20 diacid-γGlu}-[X1]HCNTATCATQ[Agb]LANFLHHSSNNFGPILPPTNVGSNTY-NH2; disulfide 3-8) | 0.095 | 0.961 | 10 | 1.03 | 18.4 | 18 | 1.29 | 200 (≈ 948 µg/mL) | 200 (≈ 948 µg/mL) | 200 (≈ 948 µg/mL) | 200 (≈ 948 µg/mL) | 19 (≈ 90 µg/mL) | 7 | 7 | 28 | 0 | 115 (≈ 545 µg/mL) | 7 (≈ 33.2 µg/mL) | 5 (≈ 23.7 µg/mL) |

Source: ChEMBL document CHEMBL4842340, “Development of Cagrilintide, a Long-Acting Amylin Analogue” (J Med Chem, 2021)
